Reference: US20250236611A1, “PYRAZOLE COMPOUNDS AND USES THEREOF” (ALCON INC., priority 2021, published 2025)

Columns and labels:
Assay type in all cases: biochemical
Settings in all cases: 10 nM JAK enzyme, 800 nM Abl peptide, room temperature 75 min
[1] = molecular target: T1, JAK3 (Homo sapiens, UniProt P52333); assay: JAK assay (KINASE-GLO luminescent kinase assay), JAK3
T1 sequence (P52333 1-1124): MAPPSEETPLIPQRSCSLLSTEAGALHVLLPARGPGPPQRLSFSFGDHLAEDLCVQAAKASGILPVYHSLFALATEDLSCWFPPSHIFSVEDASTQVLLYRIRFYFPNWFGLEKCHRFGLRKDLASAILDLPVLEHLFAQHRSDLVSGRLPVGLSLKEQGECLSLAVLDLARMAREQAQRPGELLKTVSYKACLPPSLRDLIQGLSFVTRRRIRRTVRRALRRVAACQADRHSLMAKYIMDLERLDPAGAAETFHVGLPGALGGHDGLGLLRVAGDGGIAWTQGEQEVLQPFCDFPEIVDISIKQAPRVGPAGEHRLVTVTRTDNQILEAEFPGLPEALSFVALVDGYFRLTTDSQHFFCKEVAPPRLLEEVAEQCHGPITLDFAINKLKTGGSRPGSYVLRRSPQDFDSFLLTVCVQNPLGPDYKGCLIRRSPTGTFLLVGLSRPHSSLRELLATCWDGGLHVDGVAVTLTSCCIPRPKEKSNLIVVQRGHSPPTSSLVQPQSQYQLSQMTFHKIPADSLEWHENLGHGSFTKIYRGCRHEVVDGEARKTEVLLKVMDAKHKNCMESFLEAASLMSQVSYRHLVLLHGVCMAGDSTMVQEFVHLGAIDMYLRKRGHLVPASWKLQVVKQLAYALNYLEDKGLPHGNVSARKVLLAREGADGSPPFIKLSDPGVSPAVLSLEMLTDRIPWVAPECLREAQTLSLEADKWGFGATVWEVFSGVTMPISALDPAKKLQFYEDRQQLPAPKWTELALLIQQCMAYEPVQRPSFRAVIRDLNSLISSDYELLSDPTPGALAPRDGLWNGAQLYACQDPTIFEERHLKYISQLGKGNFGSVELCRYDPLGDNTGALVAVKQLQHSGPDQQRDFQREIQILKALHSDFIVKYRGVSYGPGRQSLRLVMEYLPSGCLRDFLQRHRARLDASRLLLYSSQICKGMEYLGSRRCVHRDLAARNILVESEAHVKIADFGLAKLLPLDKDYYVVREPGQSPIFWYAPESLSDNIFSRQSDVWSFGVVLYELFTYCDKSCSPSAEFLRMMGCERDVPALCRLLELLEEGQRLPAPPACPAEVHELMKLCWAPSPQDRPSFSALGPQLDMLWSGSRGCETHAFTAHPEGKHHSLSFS
Experimental: (§1) All compounds were initially prepared as 10 mM stocks in anhydrous dimethylsulfoxide (DMSO). A 20 μL aliquot of the 10 mM solutions was transferred to individual wells in column 1 of a 96-well polypropylene microtiter plate (Corning #3363) and diluted with DMSO to give a final compound concentration of 4 mM. Test compounds were then serially diluted 1:5 in DMSO for an 11-point concentration response and further diluted in the assay buffer bringing all compound concentrations to a final range of 100 μM to 10 pM in 2.5% DMSO. The assay was performed in white 96-well, flat-bottom, half-area, non-binding assay plate (Corning #3642) in assay buffer consisting of 20 mM HEPES (pH 7.5), 10 mM MgCl2*6H2O, 100 μM sodium orthovanadate, 0.05% CHAPS and 0.1% bovine serum albumin. A 10 μL aliquot of compound from each well of the intermediate dilution plate and 20 μL of a 2×JAK substrate/enzyme solution containing acceptor substrate (800 nM Abl peptide), JAK enzyme (10 nM JAK1, JAK2, JAK3, or TYK2), and 1,4-Dithiothreitol (DTT, 2 μM) were added to all wells. The reaction was initiated by the addition of 10 μL of 4× stock solution ATP (2 μM). Reactions were thoroughly mixed manually, covered and allowed to incubate at room temperature for 75 min. Protein kinase activity was quantitated using Promega's KINASE-GLO™ luminescent Kinase Assay Kit according to the manufacturer's directions. ATP concentrations remaining in Test wells following the termination of the enzymatic reaction were compared against control wells containing equivalent amounts of DMSO containing no inhibitor (CTRL). […] Percent of Control (POC) values were determined for each concentration of compound tested according to the equation:
(§2) [formula] • IC50 values were calculated using the following 4-parameter logistic curve-fitting algorithm:
(§3) [formula] • IC50 values were converted to Ki values using the Cheng-Prusoff Equation: […]

[2] = molecular target: TYK2 (Homo sapiens, UniProt P29597); assay: JAK assay (KINASE-GLO luminescent kinase assay), TYK2
Sequence of TYK2 (P29597 whole entry): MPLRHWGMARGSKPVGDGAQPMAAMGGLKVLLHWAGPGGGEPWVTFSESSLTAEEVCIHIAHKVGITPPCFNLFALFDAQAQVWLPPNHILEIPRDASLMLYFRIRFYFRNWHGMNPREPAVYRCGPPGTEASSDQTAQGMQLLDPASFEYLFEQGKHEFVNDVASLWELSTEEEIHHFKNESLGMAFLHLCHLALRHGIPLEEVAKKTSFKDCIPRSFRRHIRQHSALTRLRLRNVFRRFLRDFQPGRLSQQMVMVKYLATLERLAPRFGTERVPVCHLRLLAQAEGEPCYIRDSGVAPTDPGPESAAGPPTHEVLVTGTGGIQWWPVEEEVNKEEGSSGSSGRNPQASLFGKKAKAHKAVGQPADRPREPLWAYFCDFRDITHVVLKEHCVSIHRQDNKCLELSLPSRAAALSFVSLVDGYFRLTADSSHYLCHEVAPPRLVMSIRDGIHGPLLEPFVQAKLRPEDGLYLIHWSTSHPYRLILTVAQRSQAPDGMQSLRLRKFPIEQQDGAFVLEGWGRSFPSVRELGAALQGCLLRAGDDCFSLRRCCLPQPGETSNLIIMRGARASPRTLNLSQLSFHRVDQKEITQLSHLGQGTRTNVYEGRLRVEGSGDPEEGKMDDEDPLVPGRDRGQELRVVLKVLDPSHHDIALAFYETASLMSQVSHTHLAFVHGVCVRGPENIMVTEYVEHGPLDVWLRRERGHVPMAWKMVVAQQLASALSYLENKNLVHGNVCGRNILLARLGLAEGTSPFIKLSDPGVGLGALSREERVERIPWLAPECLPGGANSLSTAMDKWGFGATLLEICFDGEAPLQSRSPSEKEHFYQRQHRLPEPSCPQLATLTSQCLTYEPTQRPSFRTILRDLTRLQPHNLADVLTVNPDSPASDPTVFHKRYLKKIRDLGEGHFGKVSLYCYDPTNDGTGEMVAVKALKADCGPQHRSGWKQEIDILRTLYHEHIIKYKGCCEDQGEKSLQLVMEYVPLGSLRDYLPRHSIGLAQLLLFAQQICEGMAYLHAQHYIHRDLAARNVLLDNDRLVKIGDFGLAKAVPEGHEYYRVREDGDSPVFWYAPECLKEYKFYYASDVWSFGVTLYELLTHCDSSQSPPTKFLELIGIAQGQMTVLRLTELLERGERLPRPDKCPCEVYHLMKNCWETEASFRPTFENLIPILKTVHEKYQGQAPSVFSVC
Experimental: as §1, with “A 20 μL aliquot of the 10 mM solutions was transferred to individual wells in column 1 of a 96-well polypropylene microtiter plate (Corning #3363) and diluted with DMSO to give a final compound concentration of 4 mM.” left out
as §2, §3

[3] = molecular target: JAK1 (Homo sapiens, UniProt P23458); assay: JAK assay (KINASE-GLO luminescent kinase assay), JAK1
Sequence of JAK1 (P23458 whole entry): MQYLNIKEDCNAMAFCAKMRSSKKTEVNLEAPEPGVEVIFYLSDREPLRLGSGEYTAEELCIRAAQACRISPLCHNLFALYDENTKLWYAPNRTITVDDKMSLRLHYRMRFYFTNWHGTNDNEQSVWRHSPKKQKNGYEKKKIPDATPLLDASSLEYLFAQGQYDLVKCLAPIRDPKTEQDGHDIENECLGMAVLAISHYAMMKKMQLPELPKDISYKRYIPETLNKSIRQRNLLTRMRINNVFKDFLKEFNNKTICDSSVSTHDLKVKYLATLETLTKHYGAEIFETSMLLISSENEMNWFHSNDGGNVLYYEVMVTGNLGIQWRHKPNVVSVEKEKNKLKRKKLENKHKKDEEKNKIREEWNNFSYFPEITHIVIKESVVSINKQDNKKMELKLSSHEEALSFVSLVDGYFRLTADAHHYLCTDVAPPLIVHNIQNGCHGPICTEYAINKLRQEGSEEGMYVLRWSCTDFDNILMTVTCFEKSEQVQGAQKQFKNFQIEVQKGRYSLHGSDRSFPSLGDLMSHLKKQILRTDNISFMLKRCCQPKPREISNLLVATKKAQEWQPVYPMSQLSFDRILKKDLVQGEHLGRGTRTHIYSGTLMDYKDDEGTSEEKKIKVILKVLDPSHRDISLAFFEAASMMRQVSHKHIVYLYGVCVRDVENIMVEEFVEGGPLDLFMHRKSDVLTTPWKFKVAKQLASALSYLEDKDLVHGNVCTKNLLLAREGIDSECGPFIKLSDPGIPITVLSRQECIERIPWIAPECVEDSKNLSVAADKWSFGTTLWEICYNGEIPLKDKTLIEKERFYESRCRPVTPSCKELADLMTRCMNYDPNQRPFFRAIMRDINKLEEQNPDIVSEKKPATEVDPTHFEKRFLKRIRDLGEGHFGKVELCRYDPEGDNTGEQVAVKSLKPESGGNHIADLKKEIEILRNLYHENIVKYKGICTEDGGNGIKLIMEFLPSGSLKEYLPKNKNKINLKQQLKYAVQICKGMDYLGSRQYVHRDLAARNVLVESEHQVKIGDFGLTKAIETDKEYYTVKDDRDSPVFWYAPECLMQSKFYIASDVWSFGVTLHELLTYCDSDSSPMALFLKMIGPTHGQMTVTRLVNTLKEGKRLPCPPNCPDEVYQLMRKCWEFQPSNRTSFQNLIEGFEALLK
Experimental: as §1, §2, §3

[4] = molecular target: JAK2 (Homo sapiens, UniProt O60674); assay: JAK assay (KINASE-GLO luminescent kinase assay), JAK2
Sequence of JAK2 (O60674 whole entry): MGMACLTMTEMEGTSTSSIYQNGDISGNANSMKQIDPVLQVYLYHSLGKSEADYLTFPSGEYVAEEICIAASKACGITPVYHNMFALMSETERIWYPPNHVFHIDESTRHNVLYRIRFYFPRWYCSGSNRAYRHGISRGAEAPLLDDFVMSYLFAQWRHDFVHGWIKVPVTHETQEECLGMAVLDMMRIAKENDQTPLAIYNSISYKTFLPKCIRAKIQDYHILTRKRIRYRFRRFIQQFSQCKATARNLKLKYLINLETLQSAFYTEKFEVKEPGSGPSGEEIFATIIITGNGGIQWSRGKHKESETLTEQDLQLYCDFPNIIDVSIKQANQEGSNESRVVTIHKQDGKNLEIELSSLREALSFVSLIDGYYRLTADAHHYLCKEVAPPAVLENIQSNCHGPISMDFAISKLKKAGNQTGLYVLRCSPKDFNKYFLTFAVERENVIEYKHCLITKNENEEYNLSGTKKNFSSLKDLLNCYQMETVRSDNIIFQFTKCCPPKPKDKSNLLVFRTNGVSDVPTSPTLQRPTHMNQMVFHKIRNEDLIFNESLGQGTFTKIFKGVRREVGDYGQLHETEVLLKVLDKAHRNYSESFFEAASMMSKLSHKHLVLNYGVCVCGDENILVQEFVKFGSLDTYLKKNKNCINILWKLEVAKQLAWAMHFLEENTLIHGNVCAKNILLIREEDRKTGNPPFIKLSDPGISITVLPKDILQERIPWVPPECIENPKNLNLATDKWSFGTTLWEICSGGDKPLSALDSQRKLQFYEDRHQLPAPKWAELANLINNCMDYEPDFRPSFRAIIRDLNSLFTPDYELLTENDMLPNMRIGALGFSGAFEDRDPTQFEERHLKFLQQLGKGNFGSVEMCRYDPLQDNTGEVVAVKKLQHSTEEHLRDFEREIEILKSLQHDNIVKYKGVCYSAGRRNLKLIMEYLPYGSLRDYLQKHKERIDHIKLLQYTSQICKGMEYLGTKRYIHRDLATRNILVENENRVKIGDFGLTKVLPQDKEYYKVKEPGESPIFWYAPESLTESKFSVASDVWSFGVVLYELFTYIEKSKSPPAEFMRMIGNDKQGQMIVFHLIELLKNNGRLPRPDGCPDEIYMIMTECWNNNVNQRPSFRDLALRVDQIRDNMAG
Experimental: as §1, §2, §3

Row | IC50 [1] [nM] | IC50 [2] [nM] | IC50 [3] [nM] | IC50 [4] [nM] | Compound
1 | < 10 | < 100 | < 100 | < 10 | CCc1cnc(Nc2cc(C)ns2)nc1-c1cnn(CC2(Cl)CC2)c1 [CCC1═C(N═C(NC2═CC]
2 | < 100 | < 100 | < 100 | < 10 | CCS(=O)(=O)N1CC(CF)(Cn2cc(-c3nc(Nc4cc(C)ns4)ncc3Cl)cn2)C1 [CC[S](═O)(═O)N1CC(CF)(C[N]2C═C]
3 | < 100000 | < 100000 | < 1000 | < 1000 | CCS(=O)(=O)N1CC(CO)(Cn2cc(-c3nc(Nc4cc(C)ns4)ncc3Cl)cn2)C1 [CC[S](═O)(═O)N1CC(CO)]
4 | < 1000 | < 1000 | < 1000 | < 10 | Cn1ccc(Nc2ncc(Cl)c(-c3cnn(CC4(C#N)COC4)c3)n2)cc1=O [CN1/C═C\C(═C/C1═O)NC2═NC(═C]
5 | < 100 | < 100 | < 1000 | < 10 | Cc1cnc(Nc2ccc3c(c2)C(=O)N(C)C3=O)nc1-c1cnn(CC2(Cl)CC2)c1 [CN1C(═O)C2═C(C═C(NC3═NC(═C]
6 | < 10 | < 10 | < 10 | < 10 | Cc1cnc(Nc2ccc3c(c2)CN(C)C3)nc1-c1cnn(CC2(CF)CC2)c1 [CN1CC2═CC═C(NC3═NC(═C]
7 | < 100 | < 100 | < 100 | < 10 | Cc1cnc(Nc2ccc3c(c2)OCCN3C)nc1-c1cnn(CC2(CF)CC2)c1 [CN1CCOC2═CC(═CC═C12)NC3═NC(═C]
8 | < 10 | < 100 | < 100 | < 10 | Cc1cnc(Nc2ccc(N3CC(N(C)C)C3)cc2)nc1-c1cnn(CC2(CF)CC2)c1 [CN(C)C1CN(C1)C2═CC═C(NC3═NC]
9 | < 100 | < 100 | < 100 | < 10 | Cc1cnc(Nc2cccc(C(=O)N(C)C)c2)nc1-c1cnn(CC2(CF)CC2)c1 [CN(C)C(═O)C1═CC(═CC═C1)NC2═NC]
10 | < 100 | < 100 | < 100 | < 10 | Cc1cnc(Nc2ccc(C(=O)N(C)C)cc2)nc1-c1cnn(CC2(CF)CC2)c1 [CN(C)C(═O)C1═CC═C(NC2═NC(═C]
11 | < 10 | < 100 | < 100 | < 10 | Cc1cnc(Nc2cccc(CNC(=O)CN(C)C)c2)nc1-c1cnn(CC2(CF)CC2)c1 [CN(C)CC(═O)NCC1═CC═CC(═C1)NC2═NC]
12 | < 100 | < 100 | < 1000 | < 10 | Cc1cnc(Nc2ccc(CCN(C)C)cc2)nc1-c1cnn(CC2(CF)CC2)c1 [CN(C)CCC1═CC═C(NC2═NC(═C]
13 | < 100 | < 100 | < 100 | < 10 | Cc1cnc(Nc2ccc(CNC(=O)CCN(C)C)cc2)nc1-c1cnn(CC2(CF)CC2)c1 [CN(C)CCC(═O)NCC1═CC═C(NC2═NC(═C]
14 | < 10 | < 10 | < 10 | < 10 | Cc1cnc(Nc2cc(CNC(=O)CCN(C)C)ns2)nc1-c1cnn(CC2(CF)CC2)c1 [CN(C)CCC(═O)NCC1═NSC(═C1)NC2═NC]

Row | Compound | IC50 [1] [nM] | IC50 [2] [nM] | IC50 [3] [nM] | IC50 [4] [nM]
15 | Cc1cc(Nc2ncc(C)c(-c3cnn(CC4(CF)CC4)c3)n2)ccc1N1CCN(C)CC1 [CN1CCN(CC1)C2═C(C)C═C(NC3═NC] | < 10 | < 10 | < 100 | < 10
16 | Cc1cnc(Nc2ccc(N3CCN(C)CC3)cc2)nc1-c1cnn(CC2(C#N)CC2)c1 [CN1CCN(CC1)C2═CC═C(NC3═NC(═C(C([2H])] | < 10 | < 10 | < 100 | < 10
17 | Cc1cnc(Nc2ccc(N3CCN(C)CC3)cc2)nc1-c1cnn(CC2(F)CC2)c1 [CN1CCN(CC1)C2═CC═C(NC3═NC(═C(C] | < 10 | < 10 | < 100 | < 10
18 | CN1CCN(c2ccc(Nc3ncc(Cl)c(-c4cnn(CC5(C#N)CC5)c4)n3)cn2)CC1 [CN1CCN(CC1)C2═NC═C(NC3═NC(═C] | < 100000 | < 100000 | < 100000 | < 1000
19 | Cc1cnc(Nc2ccc(CN3CCN(C)CC3)cc2)nc1-c1cnn(CC2(CF)CC2)c1 [CN1CCN(CC1)CC2═CC═C(NC3═NC] | < 100 | < 100 | < 1000 | < 10
20 | Cc1cnc(Nc2cccc(CN3CCN(C)CC3)c2)nc1-c1cnn(CC2(CF)CC2)c1 [CN1CCN(CC1)CC2═CC═CC(═C2)NC3═NC(═C] | < 100 | < 1000 | < 1000 | < 10
21 | Cc1cnc(Nc2cc(CN3CCN(C)CC3)ns2)nc1-c1cnn(CC2(CF)CC2)c1 [CN1CCN(CC1)CC2═NSC(═C2)NC3═NC] | < 100 | < 100 | < 1000 | < 10
22 | Cc1cnc(Nc2cc(COC(=O)CCN3CCN(C)CC3)ns2)nc1-c1cnn(CC2(CF)CC2)c1 [CN1CCN(CC1)CCC(═O)OCC2═NSC] | < 10 | < 10 | < 100 | < 10
23 | Cc1cc(Nc2ncc(Cl)c(-c3cnn(CC4(N(C)C(=O)OC(C)(C)C)CC4)c3)n2)sn1 [CN(C(═O)OC(C)(C)C)C1(CC1)C[N]2C═C] | < 100 | < 1000 | < 1000 | < 100
24 | Cc1cc(Nc2ncc(C)c(-c3cnn(CC4(CN(C)C)CC4)c3)n2)sn1 [CN(C)CC1(CC1)C[N]2C═C(C═N2)C3═C] | < 100 | < 100 | < 100 | < 10
25 | Cc1cnc(Nc2ccnc(CN(C)C)c2)nc1-c1cnn(CC2(CF)CCC2)c1 [CN(C)CC1═CC(═CC═N1)NC2═NC(═C] | < 100 | < 100 | < 1000 | < 10
26 | Cc1cnc(Nc2cc(CN(C)C)ns2)nc1-c1cnn(CC2(CF)CC2)c1 [CN(C)CC1═NSC(═C1)NC2═NC(═C] | < 100 | < 10 | < 100 | < 10
